The target of assay [1] is T1, PRMT5 (Homo sapiens, UniProt O14744).
T1 construct: purchased Viva (custom protein)
The assay can be described thus: PRMT5 IC50 assay in the presence of SAM as cofactor. Type of assay: biochemical. Summed up:
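Values reflect IC50 (μM) on human PRMT5 under three cofactor states. Selectivity is derived as the quotient of SAM-state Ki over MTA-state Ki, with each Ki obtained from its IC50.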

In assay [2] the target is T1, PRMT5. As to the kind of experiment: PRMT5 IC50 assay with no cofactor. It counts as biochemical. Put shortly: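 Each compound is tested on PRMT5 in the presence of SAM, of MTA, and without any cofactor. Ki values are then back-calculated using fixed factors of 1.5 (SAM) and 13.5 (MTA), and the two Ki values are compared as a ratio.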
Assay [3] addresses T1, PRMT5. As to the kind of experiment: PRMT5 IC50 assay in the presence of MTA as cofactor. It counts as biochemical. The note with it: for IC50: PRMT5, MTA as cofactor; for SAM/MTA Ratio: ratio between the Ki in the presence of SAM and the Ki in the presence of MTA. Summed up: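 IC50 values were measured against human PRMT5 with SAM, with MTA, or with no cofactor. Ki was derived from IC50 as Ki=IC50/1.5 with SAM and Ki=IC50/13.5 with MTA, and the Ki(SAM)/Ki(MTA) ratio was then taken.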

The subject of the next assay is HAP1 MTAP-intact. As to the kind of experiment: SDMA in-cell western assay, HAP1 MTAP-intact cell line. The note with it: Homo sapiens. It counts as cell-based. Put shortly: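 Potency reflects cellular SDMA reduction, detected by in-cell western, in HAP1 cells with or without MTAP (endogenous expression versus null).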
For the next assay, the system named is HAP1 MTAP-deleted. As to the kind of experiment: SDMA in-cell western assay, HAP1 MTAP-deleted cell line. Type of assay: cell-based. The note with it: for IC50: Homo sapiens, HAP1 MTAP-deleted cell line; for MTAP Intact/Deleted Ratio: IC50 ratio HAP1 MTAP-intact / HAP1 MTAP-deleted. Summed up: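 These are IC50 values from an in-cell western measuring SDMA. The HAP1 cells used carry no MTAP, in contrast to the isogenic partner line with endogenous MTAP expression.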

Where only a bound is given, the exact number is not on record here.

T1 sequence (O14744 whole entry): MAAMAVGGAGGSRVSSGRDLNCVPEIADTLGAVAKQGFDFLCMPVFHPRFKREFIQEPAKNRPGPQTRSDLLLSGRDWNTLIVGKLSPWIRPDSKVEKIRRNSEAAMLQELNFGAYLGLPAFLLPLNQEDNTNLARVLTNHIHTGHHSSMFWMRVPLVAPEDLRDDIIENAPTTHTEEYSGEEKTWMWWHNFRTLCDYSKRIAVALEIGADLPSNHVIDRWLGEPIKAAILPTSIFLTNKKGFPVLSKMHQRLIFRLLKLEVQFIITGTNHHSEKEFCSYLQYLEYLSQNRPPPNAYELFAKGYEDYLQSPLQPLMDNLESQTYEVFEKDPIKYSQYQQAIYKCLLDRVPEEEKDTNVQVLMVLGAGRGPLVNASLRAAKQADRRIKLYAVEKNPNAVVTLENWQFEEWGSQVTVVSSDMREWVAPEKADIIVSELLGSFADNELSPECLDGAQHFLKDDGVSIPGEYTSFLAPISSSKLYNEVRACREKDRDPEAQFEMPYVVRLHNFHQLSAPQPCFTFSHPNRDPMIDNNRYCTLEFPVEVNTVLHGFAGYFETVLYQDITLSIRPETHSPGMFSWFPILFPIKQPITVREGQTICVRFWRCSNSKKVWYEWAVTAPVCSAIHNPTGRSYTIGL
T1 sequence (Q9BQA1 whole entry partner): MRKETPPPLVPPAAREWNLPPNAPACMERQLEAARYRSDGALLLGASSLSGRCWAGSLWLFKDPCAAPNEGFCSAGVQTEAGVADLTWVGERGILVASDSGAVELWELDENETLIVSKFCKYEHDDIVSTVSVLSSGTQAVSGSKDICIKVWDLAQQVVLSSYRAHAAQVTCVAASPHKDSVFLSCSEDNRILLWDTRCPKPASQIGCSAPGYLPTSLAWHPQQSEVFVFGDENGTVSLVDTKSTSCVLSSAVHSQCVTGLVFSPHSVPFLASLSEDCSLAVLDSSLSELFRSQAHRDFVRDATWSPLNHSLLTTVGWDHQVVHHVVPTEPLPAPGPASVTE

By IC50 is commonly meant the point on the concentration scale where inhibition reaches its midpoint. As to `CCCC(=O)N1CC(Nc2cc(C(=O)NC[C@H](O)CN3CCc4cc(OCc5cnco5)ccc4C3)ccn2)C1` [Compound 434], the IC50 on PRMT5 [1] is 50 to 500 nM; against PRMT5 [2] it was no less than 5000 nM; on PRMT5 [3] it was 50 to 500 nM; in the assay with HAP1 MTAP-intact, 1000 to 10000 nM; in the assay with HAP1 MTAP-deleted, less than 1000 nM. Moreover, the “SAM/MTA Ratio” value at PRMT5 [3] was “A (a Ki ratio greater than or equal to 10 fold between the Ki in the presence of SAM and the Ki in the presence of MTA)”. Further, the “MTAP Intact/Deleted Ratio” value in the assay on HAP1 MTAP-deleted is “C* (an IC50 ratio of less than 3 fold between the IC50 in the HAP1 MTAP-intact cell line and the HAP1 MTAP-deleted cell line)”.

With `Cc1ncoc1COc1ccc2c(c1C)CCN(C[C@@H](O)CNC(=O)c1cc(NC3COC3)nc(N3CCN(C(C)(C)C)CC3)n1)C2` [Compound 435, 2-(4-tert-butylpiperazin-1-yl)-N-[(2S)-2-hydroxy-3-{5-methyl-6-[(4-methyl-1,3-oxazol-5-yl)methoxy]-1,2,3,4-tetrahydroisoquinolin-2-yl}propyl]-6-[(oxetan-3-yl)amino]pyrimidine-4-carboxamide], the IC50 was 50 to 500 nM at PRMT5 [1]; no less than 5000 nM against PRMT5 [2]; 50 to 500 nM at PRMT5 [3]; no less than 10000 nM with HAP1 MTAP-intact; no less than 10000 nM with HAP1 MTAP-deleted. In addition, the “SAM/MTA Ratio” value at PRMT5 [3] is “A (a Ki ratio greater than or equal to 10 fold between the Ki in the presence of SAM and the Ki in the presence of MTA)”. In the assay on HAP1 MTAP-deleted, the “MTAP Intact/Deleted Ratio” value was “C* (an IC50 ratio of less than 3 fold between the IC50 in the HAP1 MTAP-intact cell line and the HAP1 MTAP-deleted cell line)”.

In the case of `Cc1c(OCc2cnco2)ccc2c1CCN(C[C@@H](O)CNC(=O)c1cc(NC3CCCCC3)ncn1)C2` [Compound 436, 6-(cyclohexylamino)-N-[(2S)-2-hydroxy-3-{5-methyl-6-[(1,3-oxazol-5-yl)methoxy]-1,2,3,4-tetrahydroisoquinolin-2-yl}propyl]pyrimidine-4-carboxamide], the half-maximal inhibitory concentration (IC50) at PRMT5 [1] was 500 to 5000 nM; at PRMT5 [2], no less than 5000 nM; on PRMT5 [3], 500 to 5000 nM; in the assay with HAP1 MTAP-intact, no less than 10000 nM; in the assay on HAP1 MTAP-deleted, no less than 10000 nM. In addition, the “SAM/MTA Ratio” value on PRMT5 [3] is “A (a Ki ratio greater than or equal to 10 fold between the Ki in the presence of SAM and the Ki in the presence of MTA)”. Besides, in the assay with HAP1 MTAP-deleted, the “MTAP Intact/Deleted Ratio” value is “C* (an IC50 ratio of less than 3 fold between the IC50 in the HAP1 MTAP-intact cell line and the HAP1 MTAP-deleted cell line)”.

Consider `COCCN(C)c1cc(C(=O)NC[C@H](O)CN2CCc3c(ccc(OCc4ocnc4C)c3C)C2)cc(NC2CCC2)n1` [Compound 437, 2-(cyclobutylamino)-N-[(2S)-2-hydroxy-3-{5-methyl-6-[(4-methyl-1,3-oxazol-5-yl)methoxy]-1,2,3,4-tetrahydroisoquinolin-2-yl}propyl]-6-[(2-methoxyethyl)(methyl)amino]pyridine-4-carboxamide], for which the IC50 on PRMT5 [1] is 50 to 500 nM; against PRMT5 [2] it was no less than 5000 nM; at PRMT5 [3] it was 50 to 500 nM; in the assay on HAP1 MTAP-intact it was no less than 10000 nM; in the assay on HAP1 MTAP-deleted it was 1000 to 10000 nM. Moreover, at PRMT5 [3], the “SAM/MTA Ratio” value was “A (a Ki ratio greater than or equal to 10 fold between the Ki in the presence of SAM and the Ki in the presence of MTA)”. Also, the “MTAP Intact/Deleted Ratio” value with HAP1 MTAP-deleted is “B* (an IC50 ratio greater than or equal to 3 fold but lower than 10 fold between the IC50 in the HAP1 MTAP-intact cell line and the HAP1 MTAP-deleted cell line)”.

As for `CCN(C)c1cc(C(=O)NC[C@H](O)CN2CCc3cc(OCc4cnco4)ccc3C2)cc(NC2CCC2)n1` [Compound 438, (S)-2-(cyclobutylamino)-6-(ethyl(methyl)amino)-N-(2-hydroxy-3-(6-(oxazol-5-ylmethoxy)-3,4-dihydroisoquinolin-2(1H)-yl)propyl)isonicotinamide], the IC50 at PRMT5 [1] was 500 to 5000 nM; on PRMT5 [2], no less than 5000 nM; on PRMT5 [3], 50 to 500 nM; in the assay with HAP1 MTAP-intact it was 1000 to 10000 nM; in the assay on HAP1 MTAP-deleted it was 1000 to 10000 nM. For the same compound, at PRMT5 [3], the “SAM/MTA Ratio” value was “A (a Ki ratio greater than or equal to 10 fold between the Ki in the presence of SAM and the Ki in the presence of MTA)”. The “MTAP Intact/Deleted Ratio” value in the assay on HAP1 MTAP-deleted is “C* (an IC50 ratio of less than 3 fold between the IC50 in the HAP1 MTAP-intact cell line and the HAP1 MTAP-deleted cell line)”.

For `Cc1ncoc1COc1ccc2c(c1)CCN(C[C@@H](O)CNC(=O)c1cc(CC(C)C)nc(NC3CCC3)c1)C2` [Compound 439, 2-(cyclobutylamino)-N-[(2S)-2-hydroxy-3-{6-[(4-methyl-1,3-oxazol-5-yl)methoxy]-1,2,3,4-tetrahydroisoquinolin-2-yl}propyl]-6-(2-methylpropyl)pyridine-4-carboxamide], the IC50 was 50 to 500 nM at PRMT5 [1]; no less than 5000 nM on PRMT5 [2]; 50 to 500 nM on PRMT5 [3]; 1000 to 10000 nM in the assay with HAP1 MTAP-intact; less than 1000 nM in the assay on HAP1 MTAP-deleted. Also, the “SAM/MTA Ratio” value at PRMT5 [3] is “A (a Ki ratio greater than or equal to 10 fold between the Ki in the presence of SAM and the Ki in the presence of MTA)”. In addition, in the assay with HAP1 MTAP-deleted, the “MTAP Intact/Deleted Ratio” value is “C* (an IC50 ratio of less than 3 fold between the IC50 in the HAP1 MTAP-intact cell line and the HAP1 MTAP-deleted cell line)”.

Consider `Cc1ncoc1COc1ccc2c(c1C)CCN(C[C@@H](O)CNC(=O)c1ccc(OC3CCN(Cc4ccncc4)CC3)cc1)C2` [Compound 440, N-[(2S)-2-hydroxy-3-{5-methyl-6-[(4-methyl-1,3-oxazol-5-yl)methoxy]-1,2,3,4-tetrahydroisoquinolin-2-yl}propyl]-4-({1-[(pyridin-4-yl)methyl]piperidin-4-yl}oxy)benzamide], for which the IC50 on PRMT5 [1] was 50 to 500 nM; against PRMT5 [2] it was 500 to 5000 nM; at PRMT5 [3] it was 50 to 500 nM; in the assay with HAP1 MTAP-intact it was no less than 10000 nM; in the assay with HAP1 MTAP-deleted it was 1000 to 10000 nM. Also, on PRMT5 [3], the “SAM/MTA Ratio” value was “A (a Ki ratio greater than or equal to 10 fold between the Ki in the presence of SAM and the Ki in the presence of MTA)”. Also, in the assay with HAP1 MTAP-deleted, the “MTAP Intact/Deleted Ratio” value was “B* (an IC50 ratio greater than or equal to 3 fold but lower than 10 fold between the IC50 in the HAP1 MTAP-intact cell line and the HAP1 MTAP-deleted cell line)”.

`O=C(NC[C@H](O)CN1CCc2c(ccc(OCc3cnco3)c2Cl)C1)c1ccnc(NC2CC3(C2)CC3(F)F)c1` (stereo partly drawn) [Compound 441]: the IC50 at PRMT5 [1] was 50 to 500 nM; at PRMT5 [2] it was 500 to 5000 nM; on PRMT5 [3], 50 to 500 nM; in the assay on HAP1 MTAP-intact, no less than 10000 nM; in the assay with HAP1 MTAP-deleted, 1000 to 10000 nM. Besides, the “SAM/MTA Ratio” value at PRMT5 [3] is “A (a Ki ratio greater than or equal to 10 fold between the Ki in the presence of SAM and the Ki in the presence of MTA)”. Moreover, the “MTAP Intact/Deleted Ratio” value in the assay with HAP1 MTAP-deleted is “C* (an IC50 ratio of less than 3 fold between the IC50 in the HAP1 MTAP-intact cell line and the HAP1 MTAP-deleted cell line)”.

For the compound `CCCC(=O)N1CCC(Nc2cc(C(=O)NC[C@H](O)CN3CCc4c(ccc(OCc5cnco5)c4Cl)C3)ccn2)CC1` [Compound 442, (S)-2-((1-butyrylpiperidin-4-yl)amino)-N-(3-(5-chloro-6-(oxazol-5-ylmethoxy)-3,4-dihydroisoquinolin-2(1H)-yl)-2-hydroxypropyl)isonicotinamide], the IC50 was 50 to 500 nM on PRMT5 [1]; 500 to 5000 nM against PRMT5 [2]; 50 to 500 nM on PRMT5 [3]; no less than 10000 nM in the assay on HAP1 MTAP-intact; less than 1000 nM in the assay with HAP1 MTAP-deleted. The “SAM/MTA Ratio” value on PRMT5 [3] is “A (a Ki ratio greater than or equal to 10 fold between the Ki in the presence of SAM and the Ki in the presence of MTA)”. In the assay with HAP1 MTAP-deleted, the “MTAP Intact/Deleted Ratio” value is “A* (an IC50 ratio greater than or equal to 10 fold between the IC50 in the HAP1 MTAP-intact cell line and the HAP1 MTAP-deleted cell line)”.

The record behind these values is patent US11986471B2, “Compounds and methods of use” (Tango Therapeutics, Inc., priority 2018, dated 2024).
